{"source": "PubChem BioAssay (NCI)", "test_in_all_cases": "NCI-60 cell line screen, 48 h", "key": {"CCRF-CEM leukemia": {"system": "CCRF-CEM leukemia"}, "DU-145 prostate": {"system": "DU-145 prostate"}, "EKVX NSCLC": {"system": "EKVX NSCLC"}, "HCT-15 colon": {"system": "HCT-15 colon"}, "MOLT-4 leukemia": {"system": "MOLT-4 leukemia"}, "RPMI-8226 leukemia": {"system": "RPMI-8226 leukemia"}, "SK-MEL-2 melanoma": {"system": "SK-MEL-2 melanoma"}, "SNB-75 CNS": {"system": "SNB-75 CNS"}, "SW-620 colon": {"system": "SW-620 colon"}, "UACC-62 melanoma": {"system": "UACC-62 melanoma"}}, "note": "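These data come from cells grown in 96-well plates and exposed to compound for 48 hours at five concentrations. GI50 marks 50% less growth. TGI marks complete inhibition of growth.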", "data": [{"compound": "CNC(=O)n1ccc2cc(Oc3ccnc(NC(=O)c4ccc(C5CCN(CCO)CC5)cc4)c3)c(OCCOC)cc21", "values": [{"measurement": "GI50", "setting": "CCRF-CEM leukemia", "result": 2.8, "unit": "µM"}, {"measurement": "TGI", "setting": "CCRF-CEM leukemia", "result": "> 100", "unit": "µM"}, {"measurement": "GI50", "setting": "DU-145 prostate", "result": 11.2, "unit": "µM"}, {"measurement": "TGI", "setting": "DU-145 prostate", "result": 23.2, "unit": "µM"}, {"measurement": "GI50", "setting": "EKVX NSCLC", "result": 14.7, "unit": "µM"}, {"measurement": "TGI", "setting": "EKVX NSCLC", "result": 29.3, "unit": "µM"}, {"measurement": "GI50", "setting": "HCT-15 colon", "result": 4.42, "unit": "µM"}, {"measurement": "TGI", "setting": "HCT-15 colon", "result": 15.6, "unit": "µM"}, {"measurement": "GI50", "setting": "MOLT-4 leukemia", "result": 2.65, "unit": "µM"}, {"measurement": "TGI", "setting": "MOLT-4 leukemia", "result": 12.7, "unit": "µM"}, {"measurement": "GI50", "setting": "RPMI-8226 leukemia", "result": 2, "unit": "µM"}, {"measurement": "TGI", "setting": "RPMI-8226 leukemia", "result": 6.58, "unit": "µM"}, {"measurement": "GI50", "setting": "SK-MEL-2 melanoma", "result": 8.57, "unit": "µM"}, {"measurement": "TGI", "setting": "SK-MEL-2 melanoma", "result": 23.2, "unit": "µM"}, {"measurement": "GI50", "setting": "SNB-75 CNS", "result": 1.84, "unit": "µM"}, {"measurement": "TGI", "setting": "SNB-75 CNS", "result": 7.28, "unit": "µM"}, {"measurement": "GI50", "setting": "SW-620 colon", "result": 6.3, "unit": "µM"}, {"measurement": "TGI", "setting": "SW-620 colon", "result": 18.9, "unit": "µM"}, {"measurement": "GI50", "setting": "UACC-62 melanoma", "result": 5.23, "unit": "µM"}, {"measurement": "TGI", "setting": "UACC-62 melanoma", "result": 17.5, "unit": "µM"}]}, {"compound": "Cc1ccc(/C=C2\\CN(C(=O)OC(C)(C)C)C/C(=C\\c3ccc(C)cc3)C2=O)cc1", "values": [{"measurement": "GI50", "setting": "CCRF-CEM leukemia", "result": 0.587, "unit": "µM"}, {"measurement": "TGI", "setting": "CCRF-CEM leukemia", "result": "> 100", "unit": "µM"}, {"measurement": "GI50", "setting": "DU-145 prostate", "result": 0.158, "unit": "µM"}, {"measurement": "TGI", "setting": "DU-145 prostate", "result": "> 100", "unit": "µM"}, {"measurement": "TGI", "setting": "EKVX NSCLC", "result": "> 100", "unit": "µM"}, {"measurement": "GI50", "setting": "HCT-15 colon", "result": 0.054, "unit": "µM"}, {"measurement": "TGI", "setting": "HCT-15 colon", "result": "> 100", "unit": "µM"}, {"measurement": "GI50", "setting": "MOLT-4 leukemia", "result": 0.805, "unit": "µM"}, {"measurement": "TGI", "setting": "MOLT-4 leukemia", "result": "> 41.9", "unit": "µM"}, {"measurement": "GI50", "setting": "RPMI-8226 leukemia", "result": 0.329, "unit": "µM"}, {"measurement": "TGI", "setting": "SK-MEL-2 melanoma", "result": "> 100", "unit": "µM"}, {"measurement": "GI50", "setting": "SNB-75 CNS", "result": 0.693, "unit": "µM"}, {"measurement": "TGI", "setting": "SNB-75 CNS", "result": "> 100", "unit": "µM"}, {"measurement": "GI50", "setting": "SW-620 colon", "result": 0.437, "unit": "µM"}, {"measurement": "TGI", "setting": "SW-620 colon", "result": "> 100", "unit": "µM"}, {"measurement": "GI50", "setting": "UACC-62 melanoma", "result": 0.0788, "unit": "µM"}, {"measurement": "TGI", "setting": "UACC-62 melanoma", "result": "> 100", "unit": "µM"}]}, {"compound": "CN(C)S(=O)(=O)c1ccc(NC(=O)COC(=O)c2ccc(S(=O)(=O)N3CCCCC3)cc2)cc1", "values": [{"measurement": "GI50", "setting": "CCRF-CEM leukemia", "result": "> 100", "unit": "µM"}, {"measurement": "TGI", "setting": "CCRF-CEM leukemia", "result": "> 100", "unit": "µM"}, {"measurement": "GI50", "setting": "DU-145 prostate", "result": "> 100", "unit": "µM"}, {"measurement": "TGI", "setting": "DU-145 prostate", "result": "> 100", "unit": "µM"}, {"measurement": "GI50", "setting": "EKVX NSCLC", "result": "> 100", "unit": "µM"}, {"measurement": "TGI", "setting": "EKVX NSCLC", "result": "> 100", "unit": "µM"}, {"measurement": "GI50", "setting": "HCT-15 colon", "result": "> 100", "unit": "µM"}, {"measurement": "TGI", "setting": "HCT-15 colon", "result": "> 100", "unit": "µM"}, {"measurement": "GI50", "setting": "MOLT-4 leukemia", "result": "> 100", "unit": "µM"}, {"measurement": "TGI", "setting": "MOLT-4 leukemia", "result": "> 100", "unit": "µM"}, {"measurement": "GI50", "setting": "RPMI-8226 leukemia", "result": "> 100", "unit": "µM"}, {"measurement": "TGI", "setting": "RPMI-8226 leukemia", "result": "> 100", "unit": "µM"}, {"measurement": "GI50", "setting": "SK-MEL-2 melanoma", "result": "> 100", "unit": "µM"}, {"measurement": "TGI", "setting": "SK-MEL-2 melanoma", "result": "> 100", "unit": "µM"}, {"measurement": "GI50", "setting": "SNB-75 CNS", "result": "> 100", "unit": "µM"}, {"measurement": "TGI", "setting": "SNB-75 CNS", "result": "> 100", "unit": "µM"}, {"measurement": "GI50", "setting": "SW-620 colon", "result": "> 100", "unit": "µM"}, {"measurement": "TGI", "setting": "SW-620 colon", "result": "> 100", "unit": "µM"}, {"measurement": "GI50", "setting": "UACC-62 melanoma", "result": "> 100", "unit": "µM"}, {"measurement": "TGI", "setting": "UACC-62 melanoma", "result": "> 100", "unit": "µM"}]}, {"compound": "C[C@@H](C(=O)Nc1ccc(Cl)cc1)C1CCC(c2ccnc3ccc(F)cc23)CC1", "note": "(stereo partly specified)", "values": [{"measurement": "GI50", "setting": "CCRF-CEM leukemia", "result": 3.43, "unit": "µM"}, {"measurement": "TGI", "setting": "CCRF-CEM leukemia", "result": "> 100", "unit": "µM"}, {"measurement": "GI50", "setting": "DU-145 prostate", "result": 12.6, "unit": "µM"}, {"measurement": "TGI", "setting": "DU-145 prostate", "result": "> 100", "unit": "µM"}, {"measurement": "GI50", "setting": "EKVX NSCLC", "result": 4.54, "unit": "µM"}, {"measurement": "TGI", "setting": "EKVX NSCLC", "result": 61.6, "unit": "µM"}, {"measurement": "GI50", "setting": "HCT-15 colon", "result": 8.32, "unit": "µM"}, {"measurement": "TGI", "setting": "HCT-15 colon", "result": "> 100", "unit": "µM"}, {"measurement": "GI50", "setting": "MOLT-4 leukemia", "result": 4.16, "unit": "µM"}, {"measurement": "TGI", "setting": "MOLT-4 leukemia", "result": "> 100", "unit": "µM"}, {"measurement": "GI50", "setting": "RPMI-8226 leukemia", "result": 2.85, "unit": "µM"}, {"measurement": "TGI", "setting": "RPMI-8226 leukemia", "result": 13.9, "unit": "µM"}, {"measurement": "GI50", "setting": "SK-MEL-2 melanoma", "result": 9.81, "unit": "µM"}, {"measurement": "TGI", "setting": "SK-MEL-2 melanoma", "result": 29.8, "unit": "µM"}, {"measurement": "GI50", "setting": "SNB-75 CNS", "result": 12.5, "unit": "µM"}, {"measurement": "TGI", "setting": "SNB-75 CNS", "result": 92.3, "unit": "µM"}, {"measurement": "GI50", "setting": "SW-620 colon", "result": 19, "unit": "µM"}, {"measurement": "TGI", "setting": "SW-620 colon", "result": "> 100", "unit": "µM"}, {"measurement": "GI50", "setting": "UACC-62 melanoma", "result": 10.3, "unit": "µM"}, {"measurement": "TGI", "setting": "UACC-62 melanoma", "result": 47.2, "unit": "µM"}]}, {"compound": "N#Cc1cnc2cc(OC[C@H](O)CO)c(NC(=O)CC3CSSC3)cc2c1Nc1ccc(OCc2cccc(F)c2)c(Cl)c1", "values": [{"measurement": "GI50", "setting": "CCRF-CEM leukemia", "result": 0.0923, "unit": "µM"}, {"measurement": "TGI", "setting": "CCRF-CEM leukemia", "result": 0.251, "unit": "µM"}, {"measurement": "GI50", "setting": "DU-145 prostate", "result": 0.637, "unit": "µM"}, {"measurement": "TGI", "setting": "DU-145 prostate", "result": 1.36, "unit": "µM"}, {"measurement": "GI50", "setting": "EKVX NSCLC", "result": 0.696, "unit": "µM"}, {"measurement": "TGI", "setting": "EKVX NSCLC", "result": 1.67, "unit": "µM"}, {"measurement": "GI50", "setting": "HCT-15 colon", "result": 3.96, "unit": "µM"}, {"measurement": "TGI", "setting": "HCT-15 colon", "result": 13.2, "unit": "µM"}, {"measurement": "GI50", "setting": "MOLT-4 leukemia", "result": 0.0931, "unit": "µM"}, {"measurement": "TGI", "setting": "MOLT-4 leukemia", "result": 0.209, "unit": "µM"}, {"measurement": "GI50", "setting": "RPMI-8226 leukemia", "result": 1.09, "unit": "µM"}, {"measurement": "TGI", "setting": "RPMI-8226 leukemia", "result": 2.49, "unit": "µM"}, {"measurement": "GI50", "setting": "SK-MEL-2 melanoma", "result": 0.638, "unit": "µM"}, {"measurement": "TGI", "setting": "SK-MEL-2 melanoma", "result": 1.4, "unit": "µM"}, {"measurement": "GI50", "setting": "SNB-75 CNS", "result": 0.879, "unit": "µM"}, {"measurement": "TGI", "setting": "SNB-75 CNS", "result": 1.74, "unit": "µM"}, {"measurement": "GI50", "setting": "SW-620 colon", "result": 0.698, "unit": "µM"}, {"measurement": "TGI", "setting": "SW-620 colon", "result": 1.58, "unit": "µM"}, {"measurement": "GI50", "setting": "UACC-62 melanoma", "result": 0.807, "unit": "µM"}, {"measurement": "TGI", "setting": "UACC-62 melanoma", "result": 1.68, "unit": "µM"}]}, {"compound": "COc1c2c(c3c(c1CCC(=O)O)OC(C)(C)C=C3)OC(C)(C)C=C2", "values": [{"measurement": "TGI", "setting": "DU-145 prostate", "result": "> 100", "unit": "µM"}, {"measurement": "TGI", "setting": "EKVX NSCLC", "result": "> 100", "unit": "µM"}, {"measurement": "TGI", "setting": "HCT-15 colon", "result": "> 100", "unit": "µM"}, {"measurement": "TGI", "setting": "MOLT-4 leukemia", "result": "> 100", "unit": "µM"}, {"measurement": "TGI", "setting": "RPMI-8226 leukemia", "result": "> 100", "unit": "µM"}, {"measurement": "TGI", "setting": "SK-MEL-2 melanoma", "result": "> 100", "unit": "µM"}, {"measurement": "TGI", "setting": "SNB-75 CNS", "result": "> 100", "unit": "µM"}, {"measurement": "TGI", "setting": "SW-620 colon", "result": "> 100", "unit": "µM"}, {"measurement": "TGI", "setting": "UACC-62 melanoma", "result": "> 100", "unit": "µM"}]}]}
